Assays:
[1] = tested on: primary human pan T cells; assay: Cytokine production following PD-L1-dependent costimulation; type: cell-based; details: mitomycin-c treated K562/OKT3/PDL1 aAPC; FIG. 6
MC38 hPD-L1 tumor cells = assay: MC38 hPD-L1 tumor model in C57BL/6 mice; type: in vivo, mouse
Experimental: Mouse MC38 tumor cells were stably transfected with human PD-L1 (MC38 hPD-L1) and implanted subcutaneously into C57BU6 mice. […] Tumor volume was tracked over time.
70 female C57CL/6 mice, containing similar tumor volumes of approximately 50-51 mm^3, following implantation of MC38 hPD-L1 tumor cells, were staged and divided into 5 treatment groups containing 14 mice each. […] Tumor volumes were measured on days 7, 10, and 12. On day 13, 5 animals were sacrificed for analysis as described in the sections below. Tumor measurements resumed for the remaining 9 mice for each group on days 17, 20 and 27. On days 26, 28, and 31, the animals in Group 1 (Fc isotype control) received an intratumoral injection of 100 μg E35D/M47L CD80-IgV-Fc.
95 female C57BU6 mice were implanted with MC38 hPD-L1 tumor cells. The tumors were staged on Day 7, and 77 mice with similar tumor volumes of approximately 60 mm^3 were divided into 7 treatment groups containing 11 mice each.
On day 49, tumor-free mice, from Groups 3, 4, 6, and 7, and 2 naïve C57CL/6 mice were re-challenged with an additional injection of hPD-L1 MC38 cells. Tumor volumes were measured on days 56, 59, and 63. The results are depicted in FIG. 13. […] At day 59, 8/8 mice from Group 3, 1/2 mice from Group 4, 1/1 mouse from Group 6, and 2/2 mice from Group 7 were tumor-free, and by day 63, all mice in Group 3, Group 4, Group 6, and Group 7 were tumor-free.
75 animals were staged into 3 treatment groups 7 days after implantation with hPD-L1 MC38 tumor cells. […] Tumor volumes were measured every 3-4 days, from Day 11 until Day 35. 3 days after the 1st dose, 2nd dose and 3rd dose, 4 mice from each group were sacrificed for tumor and LN analyses, leaving 13 mice for tumor volume measurements throughout the study period.

huPD-L1/MC38 cells = assay: huPD-L1 MC38 tumor model, combination with oxaliplatin; type: in vivo, mouse; details: monotherapy
Experimental: To test the anti-tumor activity of the exemplary variant, it was evaluated alone or in combination with the platinum-based chemotherapeutic agent, oxaliplatin, in mice bearing human PD-L1-expressing MC38 tumors, which is a syngeneic mouse colon carcinoma solid tumor model.
The huPD-L1 MC38 cell line was generated by transducing parental MC38 cells with huPD-L1 using viral transduction. Eight-week old female C57/BL6NJ mice (The Jackson Laboratories, Sacramento, Calif.) were implanted subcutaneously with 0.5×10^6 huPD-L1/MC38 cells. For injections, 0.1 mL of cells (0.5×10^6 cells) were injected subcutaneously (SC) in the right mid-flank region.
On day 1, mice were randomized into four groups of 10 mice each, with all mice in each group having about equal mean tumor volumes (˜108 mm^3). Tumors were measured with electronic calipers two-dimensionally twice weekly, beginning on day 7 post-tumor cell implant (referred to as “day 1”). Tumor volume was calculated as length×(width×2)×0.5, with the length being the longer of the two measurements.
As shown, 30% of the mice in the monotherapy group were tumor free by the end of the study.

human pan T cells = assay: Anti-CD3 coimmobilization assay, IFN-gamma; type: cell-based; details: Table E33; culture supernatant, 3 days
Experimental: Costimulatory bioactivity of CD80 fusion variants was determined in anti-CD3 coimmobilization assays. 1 nM or 4 nM mouse anti-human CD3 (OKT3, Biolegends, USA) was diluted in PBS with 1 nM to 80 nM rCD80.Fc variant proteins. This mixture was added to tissue culture treated flat bottom 96-well plates (Corning, USA) overnight to facilitate adherence of the stimulatory proteins to the wells of the plate. The next day, unbound protein was washed off the plates and 100,000 purified human pan T cells (BenTech Bio, US) or human T cell clone BC3 (Astarte Biologics, USA) were added to each well in a final volume of 200 μl of Ex-Vivo 15 media (Lonza, Switzerland). Cells were cultured 3 days before harvesting culture supernatants and measuring human IFN-gamma levels with Duoset ELISA kit (R&D Systems, USA) as described above.

allogeneic CD4+ T cells = assay: Mixed Lymphocyte Reaction (MLR), IFN-gamma; type: cell-based, human; details: Table E33; culture supernatant
Experimental: Soluble rCD80.Fc bioactivity was tested in a human Mixed Lymphocyte Reaction (MLR). Human primary dendritic cells (DC) were generated by culturing monocytes isolated from PBMC (BenTech Bio, USA) in vitro for 7 days with 500U/ml rIL-4 (R&D Systems, USA) and 250 U/ml rGM-CSF (R&D Systems, USA) in Ex-Vivo 15 media (Lonza, Switzerland). 10,000 matured DC and 100,000 purified allogeneic CD4+ T cells (BenTech Bio, USA) were co-cultured with variant CD80 Fc fusion proteins and controls in 96 well round bottom plates in 200 μl final volume of Ex-Vivo 15 media. On day 5, IFN-gamma secretion in culture supernatants was analyzed using the Human IFN-gamma Duoset ELISA kit (R&D Systems, USA). Optical density was measured by VMax ELISA Microplate Reader (Molecular Devices, USA) and quantitated against titrated rIFN-gamma standard included in the IFN-gamma Duo-set kit (R&D Systems, USA).

[2] = tested on: huPD-L1 transduced MC38 tumor cells; assay: In vitro cytotoxicity to huPD-L1 transduced MC38 tumor cells; type: cell-based, mouse; details: 100 nM or 10 nM; 72 hours; human pan T cells 1:5; FIG. 17
Experimental: This Example describes the assessment of in vitro cytotoxicity of huPD-L1 transduced MC38 tumor cells. MC38 tumor cells, non-transduced or transduced with huPD-L1, were treated with Mitomycin-C and plated with human pan T cells labelled with CFSE at a 1:5 ratio. […] As a control, an exemplary anti-PD-1 antibody nivolumab or an Fc (inert) only control also were assessed. Cells were then harvested and stained with 7-AAD viability dye. After acquiring samples on a flow cytometer, the percentage of dead cells was calculated using Flowjo analysis by gating on 7-AAD+ cells in the CFSE− gate.

[3] = 3 injections of 100 μg on Days 8, 10 and 12
[4] = re-challenged on day 49 with hPD-L1 MC38 cells

Compound: durvalumab [reference compound]
- IL-2 secretion in culture supernatants [1]: IL-2 production was not observed
- mice with no detectable tumors (tumor-free) upon completion of the study (MC38 hPD-L1 tumor cells; 100 μg on days 7, 9 and 11, 11 mice per group): 2 mice
- tumor-free mice at day 35 (MC38 hPD-L1 tumor cells; [3]): 3/13
- tumor-free mice on Day 18 (MC38 hPD-L1 tumor cells; [3]): 3/13
- tumor-free mice after re-challenge, day 59 (MC38 hPD-L1 tumor cells; [4]): 2/2
- tumor-free mice after re-challenge, day 63 (MC38 hPD-L1 tumor cells; [4]): tumor-free

Compound: O=C1[O][Pt]2([NH][C@@H]3CCCC[C@H]3[NH]2)[O]C1=O [oxaliplatin, reference compound]
- antitumor activity (huPD-L1/MC38 cells): only modestly effective as monotherapy
- tumor free mice by the end of the study (huPD-L1/MC38 cells): no tumor-free mice

Compound: WTCD80
- Coimmobilization with anti-CD3 IFN-gamma (human pan T cells): 509 pg/mL
- MLR IFN-gamma levels (allogeneic CD4+ T cells): 19211 pg/mL

Compound: nivolumab [reference compound]
- cytotoxicity (percentage of dead 7-AAD+ tumor cells) [2]: cytotoxic activity was not observed

From patent US20220177587A1, “METHODS AND USES OF VARIANT CD80 FUSION PROTEINS AND RELATED CONSTRUCTS” (Alpine Immune Sciences, Inc., priority 2018, published 2022)
